# Measurements from patent US9242996B2 (Novartis AG, priority 2013, dated 2016).
# Molecular target: activated ERK2 (Homo sapiens (Human), UniProt P28482)
# Assay: Activated ERK2 kinase assay, ERK2 New conditions (AlphaScreen, ERKtide phosphorylation)
# Format: biochemical
# Conditions: 0.25 nM ERK2, 200 nM ERKtide peptide, 35 μM ATP, 30 min preincubation
# Protocol: The assay is carried out in 50 mM HEPES [pH 7.5], 5 mM MgCl2, 1 mM DTT, 0.01% Tween-20, 0.05% BSA using 0.25 nM ERK2, 200 nM ERKtide peptide and 35 μM ATP (all concentrations are final in the reaction) in a total volume of 10.25 μL. […] Compound dilution series are prepared in 100% DMSO. ERK2 is preincubated with compounds for 30 minutes at ambient temperature. Reaction is initiated by addition of a substrate cocktail of ERKtide peptide and ATP and is allowed to proceed for 2-3 hours at ambient temperature. Reaction is terminated by addition of 10 μL of a 2× stop buffer consisting of 100 mM Tris-Cl [pH 7.5], 25 mM EDTA, 0.01% Tween 20, 10 μg/mL of AlphaScreen Protein A Acceptor Beads, 10 μg/mL of Streptavidin Donor Beads (PerkinElmer, Waltham, Mass.), and 1.4 μg/mL phospho-EGF Receptor (Thr669) antibody (Cat #3056, Cell Signaling Technology, Danvers, Mass.). Terminated reactions are read, after overnight incubation in the dark, on an EnVision Multilabel Plate Reader (PerkinElmer, Waltham, Mass.), with excitation and emission wavelengths set to 680 nm and 570 nm, respectively. IC50 values are determined using a four-parameter fit.
# activated ERK2, sequence (P28482 whole entry): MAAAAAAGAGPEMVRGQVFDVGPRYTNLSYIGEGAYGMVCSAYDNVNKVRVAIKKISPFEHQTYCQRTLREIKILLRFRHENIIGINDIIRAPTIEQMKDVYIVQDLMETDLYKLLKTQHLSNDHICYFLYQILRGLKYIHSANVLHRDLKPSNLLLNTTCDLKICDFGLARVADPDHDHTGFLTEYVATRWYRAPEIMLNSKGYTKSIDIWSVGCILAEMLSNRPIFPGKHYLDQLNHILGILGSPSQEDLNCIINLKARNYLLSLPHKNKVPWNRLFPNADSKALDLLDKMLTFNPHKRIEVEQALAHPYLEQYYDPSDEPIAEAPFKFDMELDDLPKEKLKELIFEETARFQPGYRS
row,IC50,Structure (SMILES)
1,1.09 nM,"COCCn1cc(-c2cnc(N)c(-c3ccc(C(=O)N[C@H](CO)c4ccccc4)c(F)c3)c2)cn1 [Example 171, (S)-4-(2-amino-5-(1-(2-methoxyethyl)-1H-pyrazol-4-yl)pyridin-3-yl)-2-fluoro-N-(2-hydroxy-1-phenylethyl)benzamide]"
2,2.5 nM,"Cn1nncc1-c1cnc(N)c(-c2ccc(C(=O)N[C@H](CO)c3ccccc3)c(F)c2)c1 [Example 304, (S)-4-(2-amino-5-(1-methyl-1H-1,2,3-triazol-5-yl)pyridin-3-yl)-2-fluoro-N-(2-hydroxy-1-phenylethyl) benzamide]"
3,4.8 nM,"Nc1ncc(-c2cn[nH]c2)nc1-c1ccc(C(=O)N[C@H](CO)c2ccccc2)c(F)c1 [Example 268, (S)-4-(3-amino-6-(1H-pyrazol-4-yl)pyrazin-2-yl)-2-fluoro-N-(2-hydroxy-1-phenylethyl) benzamide]"
4,0.2 nM,"Cn1cc(-c2cnc(N)c(-c3ccc(C(=O)NC(CN)c4cccc(Cl)c4)c(F)c3)c2)cn1 (stereo not shown) [Example 307, N-(2-amino-1-(3-chlorophenyl)ethyl)-4-(2-amino-5-(1-methyl-1H-pyrazol-4-yl)pyridin-3-yl)-2-fluorobenzamide]"
5,0.397 nM,"Nc1ncc(C2CCSCC2)cc1-c1ccc(C(=O)N[C@H](CO)c2cccc(Cl)c2)c(F)c1 [Example 212, (S)-4-(2-amino-5-(tetrahydro-2H-thiopyran-4-yl)pyridin-3-yl)-N-(1-(3-chlorophenyl)-2-hydroxyethyl)-2-fluorobenzamide]"
6,1.89 nM,"Cn1cc(-c2cnc(N)c(-c3ccc(C(=O)NC4CC4c4ccccc4)c(F)c3)n2)cn1 (stereo not shown) [Example 155, 4-(3-amino-6-(1-methyl-1H-pyrazol-4-yl)pyrazin-2-yl)-2-fluoro-N-(2-phenylcyclopropyl)benzamide]"
7,32.7 nM,"Nc1ncc([C@@H]2CNC(=O)C2)cc1-c1ccc(C(=O)N[C@H](CO)c2ccccc2)c(F)c1 [Example 219, 4-(2-amino-5-((R)-5-oxopyrrolidin-3-yl)pyridin-3-yl)-2-fluoro-N—((S)-2-hydroxy-1-phenylethyl)benzamide]"
8,2.1 nM,"NC[C@@H](NC(=O)c1ccc(-c2nc(C3CCC(F)(F)CC3)cnc2N)cc1F)c1cccc(Cl)c1 [Example 197, (S)—N-(2-amino-1-(3-chlorophenyl)ethyl)-4-(3-amino-6-(4,4-difluorocyclohexyl)pyrazin-2-yl)-2-fluorobenzamide]"
9,1.48 nM,"CC(C)n1cc(-c2cnc(N)c(-c3ccc(C(=O)N[C@H](CO)c4cccc(S(C)(=O)=O)c4)c(F)c3)c2)cn1 [Example 291, (S)-4-(2-amino-5-(1-isopropyl-1H-pyrazol-4-yl)pyridin-3-yl)-2-fluoro-N-(2-hydroxy-1-(3-(methylsulfonyl)phenyl)ethyl) benzamide]"
10,1.52 nM,"Cn1cc(-c2cnc(N)c(-c3ccc(C(=O)NCc4cccc(Br)c4)c(F)c3)c2)cn1 [Example 246, 4-(2-amino-5-(1-methyl-1H-pyrazol-4-yl)pyridin-3-yl)-N-(3-bromobenzyl)-2-fluorobenzamide]"
11,1.81 nM,"COC(=O)N1CCCC(c2cnc(N)c(-c3ccc(C(=O)N[C@H](CO)c4cccc(Cl)c4)c(F)c3)n2)C1 (stereo partly drawn) [Example 216, methyl 3-(5-amino-6-(4-(((S)-1-(3-chlorophenyl)-2-hydroxyethyl)carbamoyl)-3-fluorophenyl)pyrazin-2-yl)piperidine-1-carboxylate]"
12,3.29 nM,"CS(=O)(=O)c1cccc(CNC(=O)c2ccc(-c3nc(C4CCOCC4)cnc3N)cc2)c1 [Example 323, 4-(3-amino-6-(tetrahydro-2H-pyran-4-yl)pyrazin-2-yl)-N-(3-(methylsulfonyl)benzyl)benzamide]"
13,45.4 nM,"Cn1cc(-c2cnc(N)c(-c3ccc(C(=O)NCc4cccc(S(C)(=O)=O)c4)c(F)c3)n2)cn1 [Example 147, 4-(3-amino-6-(1-methyl-1H-pyrazol-4-yl)pyrazin-2-yl)-2-fluoro-N-(3-(methylsulfonyl)benzyl)benzamide]"
14,0.253 nM,"NC[C@@H](NC(=O)c1ccc(-c2nc(C3CCOCC3)cnc2N)cc1F)c1ccccc1 [Example 326, (S)-N-(2-amino-1-phenylethyl)-4-(3-amino-6-(tetrahydro-2H-pyran-4-yl)pyrazin-2-yl)-2-fluorobenzamide]"
15,56.6 nM,"Cn1cc(-c2cnc(N)c(-c3ccc(C(=O)NCc4cccc(Cl)n4)c(F)c3)c2)cn1 [Example 236, 4-(2-amino-5-(1-methyl-1H-pyrazol-4-yl)pyridin-3-yl)-N-((6-chloropyridin-2-yl)methyl)-2-fluorobenzamide]"
16,0.853 nM,"C[C@@H](NC(=O)c1ccc(-c2nc([C@H]3CC[C@H](O)CC3)cnc2N)cc1F)c1cc(F)cc(S(C)(=O)=O)c1 [Example 419, 4-(3-amino-6-((1r,4R)-4-hydroxy-cyclohexyl)pyrazin-2-yl)-2-fluoro-N-((R)-1-(3-fluoro-5-(methylsulfonyl)phenyl)ethyl) benzamide]"
17,0.595 nM,"Cc1c(-c2cnc(N)c(-c3ccc(C(=O)N[C@H](CO)c4cccc(F)c4)c(F)c3)c2)cnn1C [Example 295, (S)-4-(2-amino-5-(1,5-dimethyl-1H-pyrazol-4-yl)pyridin-3-yl)-2-fluoro-N-(1-(3-fluorophenyl)-2-hydroxyethyl) benzamide]"
18,5.13 nM,"Cn1cc(-c2cnc(N)c(-c3ccc(C(=O)N[C@H](CO)c4ccccc4)c(F)c3)c2)c(C(F)(F)F)n1 [Example 168, (S)-4-(2-amino-5-(1-methyl-3-(trifluoromethyl)-1H-pyrazol-4-yl)pyridin-3-yl)-2-fluoro-N-(2-hydroxy-1-phenylethyl)benzamide]"
19,3.14 nM,"Cn1cc(-c2cnc(N)c(-c3ccc(C(=O)N[C@H](CO)c4cccc(F)c4)c(F)c3)c2)c(C#N)n1 [Example 159, (S)-4-(2-amino-5-(3-cyano-1-methyl-1H-pyrazol-4-yl)pyridin-3-yl)-2-fluoro-N-(1-(3-fluorophenyl)-2-hydroxyethyl)benzamide]"

# Continued, compound first:
row,Structure (SMILES),IC50
1,"Nc1ncc(C2CCOCC2)nc1-c1ccc(C(=O)NC(c2ccccc2)C(F)F)c(F)c1 (racemic) [Example 50, (+/−)-4-(3-amino-6-(tetrahydro-2H-pyran-4-yl)pyrazin-2-yl)-N-(2,2-difluoro-1-phenylethyl)-2-fluorobenzamide]",8.39 nM
2,"C[C@@H](NC(=O)c1ccc(-c2cc(C3CCC(=O)NC3)cnc2N)cc1F)c1cccc(Cl)c1 (mixture of isomers) [Example 119, 4-(2-amino-5-(6-oxopiperidin-3-yl)pyridin-3-yl)-N-((R)-1-(3-chlorophenyl)ethyl)-2-fluorobenzamide]",0.549 nM
3,"Nc1ncc([C@H]2CC[C@@H](O)CC2)nc1-c1ccc(C(=O)NCc2ccccc2)c(F)c1 [Example 15, 4-(3-amino-6-((1s,4s)-4-hydroxycyclohexyl)pyrazin-2-yl)-N-benzyl-2-fluorobenzamide]",235 nM
4,"C[C@@H](NC(=O)c1ccc(-c2cc(C3CCC(=O)N(C)C3)cnc2N)cc1F)c1cccc(Cl)c1 (stereo partly drawn) [Example 38, 4-(2-amino-5-(1-methyl-6-oxopiperidin-3-yl)pyridin-3-yl)-N—((R)-1-(3-chlorophenyl)ethyl)-2-fluorobenzamide]",8.09 nM
5,Nc1ncc(-c2ccoc2)nc1-c1ccc(C(=O)N[C@H](CO)c2ccccc2)cc1 [Example 138],13.3 nM
6,"Cn1cc(-c2cnc(N)c(-c3ccc(C(=O)N[C@H](CO)c4ccccc4)c(F)c3)c2)cn1 [Example 107, (S)-4-(2-amino-5-(1-methyl-1H-pyrazol-4-yl)pyridin-3-yl)-2-fluoro-N-(2-hydroxy-1-phenylethyl)benzamide]",1.16 nM
7,"COC(=O)CCc1cnc(N)c(-c2ccc(C(=O)NCc3ccccc3)c(F)c2)n1 [Example 19, methyl 3-(5-amino-6-(4-(benzylcarbamoyl)-3-fluorophenyl)pyrazin-2-yl)propanoate]",6030 nM
8,"CN1CC(c2cnc(N)c(-c3ccc(C(=O)N[C@H](CO)c4cccc(Cl)c4)c(F)c3)c2)CCC1=O (stereo partly drawn) [Example 35, 4-(2-amino-5-(1-methyl-6-oxopiperidin-3-yl)pyridin-3-yl)-N—((S)-1-(3-chlorophenyl)-2-hydroxyethyl)-2-fluorobenzamide]",1.09 nM
9,"Nc1ncc(C2CCOCC2)nc1-c1ccc2c(c1)OCCN(Cc1ccccc1)C2=O [Example 109, 8-(3-amino-6-(tetrahydro-2H-pyran-4-yl)pyrazin-2-yl)-4-benzyl-3,4-dihydrobenzo[f][1,4]oxazepin-5(2H)-one]",5.81 nM
10,"Nc1ncc(C2CCC(=O)NC2)cc1-c1ccc(C(=O)NCc2ccccc2)c(F)c1 (racemic) [Example 118, (+/−)-4-(2-amino-5-(6-oxopiperidin-3-yl)pyridin-3-yl)-N-benzyl-2-fluorobenzamide]",17.6 nM
11,"Cn1cc(-c2cnc(N)c(-c3ccc(C(=O)N[C@H](CO)c4ccccc4)cc3)n2)cn1 [Example 146, (S)-4-(3-amino-6-(1-methyl-1H-pyrazol-4-yl)pyrazin-2-yl)-N-(2-hydroxy-1-phenylethyl)benzamide]",3.39 nM
12,"Nc1ncc(C2CCOCC2)nc1-c1ccc(C(=O)N[C@@H]2CCCN(S(=O)(=O)c3ccccc3F)C2)c(F)c1 [Example 48, (R)-4-(3-amino-6-(tetrahydro-2H-pyran-4-yl)pyrazin-2-yl)-2-fluoro-N-(1-((2-fluorophenyl)sulfonyl)piperidin-3-yl)benzamide]",122 nM
